{
  "source": "patent US8822419B2",
  "about": "“Membrane resident peptide in anti-cancer peptides causes tumor cell necrosis rather than apoptosis of cancer cells” (The Research Foundation of State University of New York, priority 2008, dated 2014)",
  "key": {"cancer cells": {"system": "cancer cells", "conditions": "previous studies (1-3), also in cancer cells in which p53 protein was absent; cited from earlier work"}, "MiaPaCa-2 cells [1]": {"system": "MiaPaCa-2 cells", "assay": "Incubation of MiaPaCa-2 cells with peptides; cell counts by trypan blue exclusion, MTT", "format": "cell-based, human", "method": "Duplicate sets of 6×10^6 MiaPaCa-2 cells were incubated with different concentrations of PNC-28, i.e., 5, 10, 20, 40, 80 and 160 μmol/ml. […] All incubations were carried out using a protocol identical to that described in ref. 1 (1). After the cells had been allowed to adhere to the tissue culture dish (TCD) for 24 hours the medium was removed from each TCD, and new medium containing the same or no peptide concentration was added. Medium from each TCD was removed every 24 h, and fresh medium with its respective peptide at the appropriate concentration was added. Cells were inspected daily for changes in cell growth, morphology, and viability. At the end of each day over a five-day period, duplicate cell counts were performed for each incubation using the trypan blue exclusion method. In addition, cell viability was also determined by 3-[4,5-dimethylthiazol-2-yl]-2,5 diphenyl tetrazolium bromide (MTT) assay according to the manufacturers' instructions (Promega Corporation, Madison, Wis., USA)."}, "MiaPaCa-2 cells [2]": {"system": "MiaPaCa-2 cells", "assay": "Caspase (CPP32) activity assay as marker for apoptosis", "format": "cell-based, human", "method": "(§1) Cells from culture plates at 18, 44, 66 and 90 h time points were lysed in situ in cell lysis buffer [1% Triton X-100 in 0.05 M Tris-HCl (pH 8.0), […], 0.02% Na azide, 0.1 mg/ml phenylmethylsulfonylfluoride (PMSF), and 0.001 mg/ml Aprotinin]. Lysates were subjected to 10% SDS-PAGE followed by electrotransfer to nitrocellulose and immunoblotting with antibodies to GFP and p53 (Santa Cruz Biotechnology, Santa Cruz, Calif.). Antibody-labeled proteins were identified by chemiluminescence using ECL methodology (Amersham)(1). Assays for elevated caspase expression were performed using the Clontech (Palo Alto, Calif.) for caspase (CPP32) activity (2). As a positive control for the caspase activity assay, Mia-PaCa-2 cells were incubated with tumor necrosis factor (TNF) (Sigma, St. Louis, Mo.) at a concentration of 10 ng/ml for 24 h. In addition, to detect if significant cell necrosis occurred, the CytoTox96 assay was used (Promega, Madison, Wis.) for LDH released into the cell culture medium as performed on several breast cancer cell lines (2)."}, "MiaPaCa-2 cells [3]": {"system": "MiaPaCa-2 cells", "assay": "LDH release into cell culture medium (CytoTox96) as marker for necrosis", "format": "cell-based, human", "method": "as §1"}, "MiaPaCa-2 cells [4]": {"system": "MiaPaCa-2 cells", "assay": "Time-lapse electron microscopy of MiaPaCa-2 cells treated with PNC-28", "format": "cell-based, human", "conditions": "25 μmol/ml, 15 min, FIG. 4B", "method": "Time-lapse electron microscopy (EM) was used to examine the ultrastructural features of cell death. MiaPaCa-2 cells were grown for 24 h on Thermanox cover slips (Lux Scientific), and then treated with 25 μmol of PNC-28 for 1 and 15 min, along with a corresponding control group without peptide. The cells were washed with PBS solution and then fixed with 2.5% gluteraldehyde-PBS. The fixed cultures were rinsed in a 0.1 M phosphate buffer (pH 7.3), post fixed in 2% (0.08 m) osmium tetroxide-PBS (pH 7.3), dehydrated in a graded series of ethanol and propylene oxide and embedded in Epon 812. Sections were cut at 700 Å, stained with uranyl acetate and lead citrate and examined with a Jeol JEM 1010 Electron Microscope."}, "MiaPaCa-2 cells [5]": {"system": "MiaPaCa-2 cells", "assay": "Immunoblotting of MiaPaCa-2 cell lysates for p53 and waf^p21, with caspase activity", "format": "cell-based, human", "conditions": "at near 100 percent cell death: 96 hr transfected cells, 48 hr PNC-28 75 μmol/ml, FIG. 6", "method": "For protein analyses, and detection of apoptosis, 2×10^6 cells were seeded into 10 cm diameter TCDs and transfected with DNA: Lipofectamine 2000 proportionally adjusted to the increased area. When the cell density reached 90-100%, the cells of the experimental and sham-transfected group were detached using trypsin and plated into four new TCD's in which they were allowed to grow in complete medium. At defined time points cells were released from adherence with 10 mM EDTA in PBS and were lysed in lysing buffer [1% Triton X-100 in 0.05 M Tris-HCl (pH 8.0), […], 0.02% Na azide, 0.01 mg/ml phenylmethylsulfonylfluoride (PMSF), and 0.001 mg/ml Aprotinin]. Protein equivalents of 10^6 cells, i.e., ˜30 μg/lane, were then subjected to SDS-PAGE using 10% Tris-HCl gels and, in some experiments, 16% Tricine Peptide Gels (Biorad, Hercules, Calif.) to detect PNC-28 (−3104 Da) and p53 17-26 (−1500 Da). […] Semi-quantitation of immunoblotting results was performed by measuring luminosity of bands in a single scanned developed x-ray film, using the histogram option of Adobe Photoshop 5.5. […] Opacity of each band was calculated by the equation, Opacity=255-Luminosity-background (15). […]"}, "[6]": {"conditions": "all doses over the 20-75 μmol/ml range, FIG. 4D"}},
  "note": "Entries after “also recorded” stand apart in the source; their conditions may differ.",
  "data": [
    {"compound": "ETFSDLWKLLKKWKMRRNQFWVKVQRG (PNC-28)", "values": [
      {"measurement": "mode of tumor cell death", "setting": "cancer cells", "result": "induced tumor cell necrosis, not apoptosis"},
      {"measurement": "time to cell death", "setting": "MiaPaCa-2 cells [1]; 20 μmol/ml", "result": 1, "unit": "week"},
      {"measurement": "cell death", "setting": "MiaPaCa-2 cells [1]; 20 μmol/ml, 48 h, FIG. 2", "result": "roughly 35%"},
      {"measurement": "time to similar (near total) cell death", "setting": "MiaPaCa-2 cells [1]; 40 μmol/ml", "result": 4, "unit": "days"},
      {"measurement": "cell morphology", "setting": "MiaPaCa-2 cells [1]; 75 μmol/ml, 24 h, FIG. 1B", "result": "appear necrotic"},
      {"measurement": "cell death as measured by trypan blue dye uptake", "setting": "MiaPaCa-2 cells [1]; 75 μmol/ml, 48 h", "result": "~100", "unit": "%"},
      {"measurement": "time to near total cell death", "setting": "MiaPaCa-2 cells [1]; 80 μmol/ml", "result": 48, "unit": "h"},
      {"measurement": "cell death", "setting": "MiaPaCa-2 cells [1]; 80 μmol/ml, 48 h, FIG. 2", "result": "over 80%"},
      {"measurement": "cell death", "setting": "MiaPaCa-2 cells [1]; doses between 20 and 75 μmol/ml, time decreasing with dose", "result": "~100", "unit": "%"},
      {"measurement": "caspase level", "setting": "MiaPaCa-2 cells [2]; 25 μmol/ml, 24 h, FIG. 4C", "result": "only baseline levels"},
      {"measurement": "caspase", "setting": "MiaPaCa-2 cells [2]; 25 umol/ml, 24 h, FIG. 4D", "result": "approximately 0.03"},
      {"measurement": "caspase", "setting": "MiaPaCa-2 cells [2]; 50 umol/ml, 24 h, FIG. 4D", "result": "approximately 0.02"},
      {"measurement": "caspase", "setting": "MiaPaCa-2 cells [2]; 75 umol/ml, 24 h, FIG. 4D", "result": "approximately 0.015"},
      {"measurement": "caspase level", "setting": "MiaPaCa-2 cells [2]; [6]", "result": "only background levels of caspase"},
      {"measurement": "LDH activity", "setting": "MiaPaCa-2 cells [3]; 25 μmol/ml, 24 h, FIG. 4A", "result": "almost to the same extent as cells that were lysed with lysis buffer; also recorded: high levels of LDH"},
      {"measurement": "LDH", "setting": "MiaPaCa-2 cells [3]; 25 umol/ml, 24 h, FIG. 4D", "result": "approximately 0.235 OD"},
      {"measurement": "LDH", "setting": "MiaPaCa-2 cells [3]; 50 umol/ml, 24 h, FIG. 4D", "result": "approximately 0.44 OD"},
      {"measurement": "LDH", "setting": "MiaPaCa-2 cells [3]; 75 umol/ml, 24 h, FIG. 4D", "result": "approximately 0.35 OD"},
      {"measurement": "LDH release", "setting": "MiaPaCa-2 cells [3]; [6]", "result": "early release of LDH"},
      {"measurement": "plasma membrane integrity in electron micrographs", "setting": "MiaPaCa-2 cells [4]", "result": "exhibit lysis of their plasma membranes"},
      {"measurement": "levels of p53, waf^p21 and caspase activity", "setting": "MiaPaCa-2 cells [5]", "result": "not observed"}
    ]},
    {"compound": "PPLSQETFSDLWKLLKKWKMRRNQFWVKVQRG (PNC-27)", "values": [
      {"measurement": "mode of tumor cell death", "setting": "cancer cells", "result": "induced tumor cell necrosis, not apoptosis"}
    ]},
    {"compound": "TNF-α [reference compound]", "values": [
      {"measurement": "caspase 3 activity, positive control", "setting": "MiaPaCa-2 cells [2]; 10 ng/ml, 24 h, FIG. 4C condition 1", "result": "Maximal caspase release"}
    ]},
    {"compound": "CC[C@H](C)[C@H](NC(=O)[C@H](CCCNC(=N)N)NC(=O)[C@H](CCCCN)NC(=O)CNC(=O)[C@@H](NC(=O)[C@H](CO)NC(=O)[C@H](Cc1ccccc1)NC(=O)[C@@H]1CCCN1C(=O)[C@@H](N)CCSC)[C@@H](C)O)C(=O)N[C@@H](CCSC)C(=O)N[C@@H](CC(C)C)C(=O)NCC(=O)N[C@@H](CCC(=O)O)C(=O)N[C@@H](CCCCN)C(=O)N[C@@H](CCCCN)C(=O)N[C@@H](Cc1c[nH]c2ccccc12)C(=O)N[C@@H](CCCCN)C(=O)N[C@@H](CCSC)C(=O)N[C@@H](CCCNC(=N)N)C(=O)N[C@@H](CCCNC(=N)N)C(=O)N[C@@H](CC(N)=O)C(=O)N[C@@H](CCC(N)=O)C(=O)N[C@@H](Cc1ccccc1)C(=O)N[C@@H](Cc1c[nH]c2ccccc12)C(=O)N[C@H](C(=O)N[C@@H](CCCCN)C(=O)N[C@H](C(=O)N[C@@H](CCC(N)=O)C(=O)N[C@@H](CCCNC(=N)N)C(=O)NCC(=O)O)C(C)C)C(C)C", "note": "[PNC-29, reference compound]", "values": [
      {"measurement": "cytotoxicity, number of remaining cells versus untreated", "setting": "MiaPaCa-2 cells [1]; 75 μmol/ml, 48 h, FIG. 3", "result": "no effect on cell growth"}
    ]}
  ]
}
